From US9409966B2, “Glucagon-like peptide-1 derivatives and their pharmaceutical use” (priority 2007, dated 2016)
*1 amine or outer side, *2 acyl side, *3 side chain or, on linkers, in order; H or OH if unused. Where a SMILES comes first, the peptide text is derived from it. Side-chain parts run from the residue outwards. [ ]: non-standard residue; d: D form. The star is where a group is joined. X1 = O=C(CCCCCCCCCCCCCCCc1nnn[nH]1)NS(=O)(=O)CCCC(=O)*; C18 diacid = O=C(O)CCCCCCCCCCCCCCCCC(=O)*; γGlu = O=C(O)[C@H](CCC(=O)[*:2])N[*:1]; AEEA = NCCOCCOCC(=O)O; Aib = CC(C)(N)C(=O)O; GABA = NCCCC(=O)O

Molecular target: human serum albumin (HSA) (Homo sapiens, UniProt P02768)
Experiment: Albumin binding affinity, competition scintillation proximity assay (SPA)
Protocol: Streptavidin-SPA beads (GE Healthcare RPNQ0009) were incubated with biotinylated HSA for 5 hours. The beads were washed with buffer to remove unbound HSA. […] After 20 hours of gentle rocking at room temperature the plates were centrifuged and counted on a TopCounter.

human serum albumin (HSA), sequence (P02768 25-609): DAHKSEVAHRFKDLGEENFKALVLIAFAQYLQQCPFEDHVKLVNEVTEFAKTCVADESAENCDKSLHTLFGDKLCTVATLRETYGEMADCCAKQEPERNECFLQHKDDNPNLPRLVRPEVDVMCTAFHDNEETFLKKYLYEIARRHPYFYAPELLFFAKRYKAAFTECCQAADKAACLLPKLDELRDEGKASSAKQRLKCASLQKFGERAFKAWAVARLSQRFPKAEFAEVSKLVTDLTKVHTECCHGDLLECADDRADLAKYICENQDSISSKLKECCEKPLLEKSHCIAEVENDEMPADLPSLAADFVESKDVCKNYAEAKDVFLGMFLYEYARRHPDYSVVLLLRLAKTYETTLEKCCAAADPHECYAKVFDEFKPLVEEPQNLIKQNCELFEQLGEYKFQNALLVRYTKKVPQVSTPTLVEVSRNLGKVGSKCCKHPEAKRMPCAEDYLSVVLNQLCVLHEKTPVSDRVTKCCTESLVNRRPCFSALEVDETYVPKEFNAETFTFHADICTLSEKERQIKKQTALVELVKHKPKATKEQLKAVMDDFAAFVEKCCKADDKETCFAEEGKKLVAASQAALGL

Row | SMILES | EC50 [nM] | EC50 at 20 hours (human, pH 7.4) [nM]
1 | CC[C@H](C)[C@H](NC(=O)[C@H](Cc1ccccc1)NC(=O)[C@H](CCC(=O)O)NC(=O)[C@H](CCCNC(=N)N)NC(=O)[C@@H](NC(=O)[C@H](C)NC(=O)[C@H](CCC(N)=O)NC(=O)[C@H](CCC(=O)O)NC(=O)[C@H](CCC(=O)O)NC(=O)[C@H](CC(C)C)NC(=O)[C@H](Cc1ccc(O)cc1)NC(=O)[C@H](CO)NC(=O)[C@H](CO)NC(=O)[C@@H](NC(=O)[C@H](CC(=O)O)NC(=O)[C@H](CO)NC(=O)[C@@H](NC(=O)[C@H](Cc1ccccc1)NC(=O)[C@@H](NC(=O)CNC(=O)[C@H](CCC(=O)O)NC(=O)C(C)(C)NC(=O)[C@@H](N)Cc1c[nH]cn1)[C@@H](C)O)[C@@H](C)O)C(C)C)C(C)C)C(=O)N[C@@H](C)C(=O)N[C@@H](CCCCNC(=O)COCCOCCNC(=O)COCCOCCNC(=O)CC[C@H](NC(=O)CCCCCCCCCCCCCCCCC(=O)O)C(=O)O)C(=O)N[C@@H](CC(C)C)C(=O)N[C@H](C(=O)N[C@@H](CCCCN)C(=O)N[C@@H](CCCCN)C(=O)N[C@@H](CCCCN)C(N)=O)C(C)C [Example 36, N-epsilon31-[2-(2-{2-[2-(2-{2-[(S)-4-Carboxy-4-(17-carboxyheptadecanoylamino)butyrylamino]ethoxy}ethoxy)acetylamino]ethoxy}ethoxy)acetyl][Aib8,Glu22,Val25,Arg26,Lys31,Lys35,Lys36]GLP-1-(7-36) amide] (H-H[Aib]EGTFTSDVSSYLEEQAVREFIAK([AEEA-AEEA-γGlu-C18 diacid])LVKKK-NH2) | 400 to 800 | –
2 | CC[C@H](C)[C@H](NC(=O)[C@H](Cc1ccccc1)NC(=O)[C@H](CCC(=O)O)NC(=O)[C@H](CCCNC(=N)N)NC(=O)[C@H](C)NC(=O)[C@H](C)NC(=O)[C@H](CCC(N)=O)NC(=O)[C@H](CCC(=O)O)NC(=O)[C@H](CCC(=O)O)NC(=O)[C@H](CC(C)C)NC(=O)[C@H](Cc1ccc(O)cc1)NC(=O)[C@H](CO)NC(=O)[C@H](CO)NC(=O)[C@@H](NC(=O)[C@H](CC(=O)O)NC(=O)[C@H](CO)NC(=O)[C@@H](NC(=O)[C@H](Cc1ccccc1)NC(=O)[C@@H](NC(=O)CNC(=O)[C@H](CCC(=O)O)NC(=O)C(C)(C)NC(=O)[C@@H](N)Cc1c[nH]cn1)[C@@H](C)O)[C@@H](C)O)C(C)C)C(=O)N[C@@H](CCC(=O)O)C(=O)N[C@@H](Cc1c[nH]c2ccccc12)C(=O)N[C@@H](CC(C)C)C(=O)N[C@H](C(=O)N[C@@H](CCCCN)C(=O)NCC(=O)N[C@@H](CCCNC(=N)N)C(=O)N1CCC[C@H]1C(=O)N[C@@H](CCCCNC(=O)COCCOCCNC(=O)CC[C@H](NC(=O)CC[C@H](NC(=O)CCCNC(=O)CCCS(=O)(=O)NC(=O)CCCCCCCCCCCCCCCc1nnn[nH]1)C(=O)O)C(=O)O)C(=O)O)C(C)C [Example 14, [Aib8,Glu22,Arg26,Glu30,Pro37]GLP-1-(7-37)Lys [2-(2-{2-[4-Carboxy-4-(4-carboxy-4-{4-[4-(16-1H-tetrazol-5-yl-hexadecanoylsulfamoyl)butyrylamino]butyrylamino}butyrylamino)butyrylamino]ethoxy}ethoxy)acetyl]] (H-H[Aib]EGTFTSDVSSYLEEQAAREFIEWLVKGRPK([AEEA-γGlu-γGlu-GABA-X1])-OH; N-terminus and C-terminus assumed) | – | 150 to 200
